In patent publication USRE38425E1, “Semicarbazones having CNS activity and pharmaceutical preparations containing same” (University of Saskatchewan Technologies, Inc., priority 1995, dated 2004):

What was measured:
[1] = system: rats; test: MES screen after oral administration to rats; settings: oral administration to rats; for MES screen ED50: time t (h) per compound as in the table
[2] = system: rats; test: neurotoxicity screen after oral administration to rats; settings: oral administration to rats; time t (h) per compound as in the table
[3] = system: mice; test: MES screen after intraperitoneal injection in mice; assay type: in vivo; settings: intraperitoneal injection in mice; time t (h) per compound as in the table
[4] = system: mice; settings: intraperitoneal injection in mice; time t (h) per compound as in the table
Protocol: An initial anticonvulsant evaluation of the compounds prepared according to Example 1 was undertaken by administering the compounds by the intraperitoneal route to mice. Protection and/or neurotoxicity was noted 0.5 and 4 hours after administering doses of 30, 100 and 300 mg/kg of each semicarbazone to the animals.
Doses of 30, 100 and 300 mg/kg were injected by the intraperitoneal route into mice and evaluated in the MES, scPTZ and neurotoxicity screens one half and four hours after administration.

[5] = system: mice; settings: for neurotoxicity screen TD50: intraperitoneal injection in mice, time t (h) per compound as in the table

SMILES: CC(=NNC(N)=O)c1ccc(Oc2ccc(Cl)cc2)cc1 [Compound 13c]
- MES screen: number of rats out of 4 which were protected ([1]; dose 30 mg/kg, 0.25 h): 3
- MES screen: number of rats out of 4 which were protected ([1]; dose 30 mg/kg, 0.5 h): 4
- MES screen: number of rats out of 4 which were protected ([1]; dose 30 mg/kg, 1 h): 4
- MES screen: number of rats out of 4 which were protected ([1]; dose 30 mg/kg, 2 h): 4
- MES screen: number of rats out of 4 which were protected ([1]; dose 30 mg/kg, 4 h): 4
- MES screen ED50 [1]: 2.92 mg/kg
- neurotoxicity screen TD50 [2]: <500 mg/kg

SMILES: CCCCOc1ccc(Oc2ccc(C=NNC(N)=O)cc2)cc1 [Compound 5u]
- MES screen 4 h: number of rats out of 4 which were protected ([1]; dose 12.5 mg/kg, 4 h): 2
- MES screen ED50 [1]: 45.81 mg/kg

SMILES: CC(C)(C)CC(C)(C)c1ccc(Oc2ccc(C=NNC(N)=O)cc2)cc1 [Compound 5t]
- MES screen ED50 [3]: 11.27 mg/kg
- acPTZ screen ED50 [4]: >200 mg/kg
- neurotoxicity screen TD50 [5]: 124.53 mg/kg

SMILES: N#Cc1ccc(Oc2ccc(C=NNC(N)=O)cc2)cc1 [Compound 4j]
- MES screen 0.25 h: number of rats out of 4 which were protected ([1]; dose 12.5 mg/kg, 0.25 h): 2
- MES screen 0.5 h: number of rats out of 4 which were protected ([1]; dose 12.5 mg/kg, 0.5 h): 4
- MES screen 1 h: number of rats out of 4 which were protected ([1]; dose 12.5 mg/kg, 1 h): 4
- MES screen 2 h: number of rats out of 4 which were protected ([1]; dose 12.5 mg/kg, 2 h): 4
- MES screen 4 h: number of rats out of 4 which were protected ([1]; dose 12.5 mg/kg, 4 h): 4

SMILES: CCC(=NNC(N)=O)c1ccc(Oc2ccc(F)cc2)cc1 [Compound 13f]
- MES screen ED50 [3]: 5.46 mg/kg
- acPTZ screen ED50 [4]: 12.84 mg/kg
- neurotoxicity screen TD50 [5]: 35.26 mg/kg
- MES screen: number of rats out of 4 which were protected ([1]; dose 12.5 mg/kg, 0.5 h): 2
- MES screen: number of rats out of 4 which were protected ([1]; dose 12.5 mg/kg, 1 h): 4
- MES screen: number of rats out of 4 which were protected ([1]; dose 12.5 mg/kg, 2 h): 4
- MES screen: number of rats out of 4 which were protected ([1]; dose 12.5 mg/kg, 4 h): 4
- MES screen ED50 [1]: 4.25 mg/kg

SMILES: COc1ccc(Oc2ccc(C=NNC(N)=O)cc2)cc1 [Compound 4h]
- MES screen 0.5 h: number of rats out of 4 which were protected ([1]; dose 50 mg/kg, 0.5 h): 4
- MES screen 1 h: number of rats out of 4 which were protected ([1]; dose 50 mg/kg, 1 h): 4
- MES screen 2 h: number of rats out of 4 which were protected ([1]; dose 50 mg/kg, 2 h): 4
- MES screen 4 h: number of rats out of 4 which were protected ([1]; dose 50 mg/kg, 4 h): 4

SMILES: NC(=O)NN=Cc1ccc(Oc2ccc(Br)cc2)cc1 [Compound 4d]
- MES screen 0.25 h: number of rats out of 4 which were protected ([1]; dose 50 mg/kg, 0.25 h): 1
- MES screen 0.5 h: number of rats out of 4 which were protected ([1]; dose 50 mg/kg, 0.5 h): 4
- MES screen 1 h: number of rats out of 4 which were protected ([1]; dose 50 mg/kg, 1 h): 4
- MES screen 2 h: number of rats out of 4 which were protected ([1]; dose 50 mg/kg, 2 h): 4
- MES screen 4 h: number of rats out of 4 which were protected ([1]; dose 50 mg/kg, 4 h): 4

SMILES: CCCCCCCOc1ccc(Oc2ccc(C=NNC(N)=O)cc2)cc1 [Compound 5v]
- toxicity screen 4 h: minimum dose whereby bioactivity was demonstrated in half or more of the mice ([5]; mouse, in vivo): −

SMILES: NC(=O)NN=Cc1ccc(Oc2ccc(Oc3ccccc3)cc2)cc1 [Compound 4i]
- MES screen 2 h: number of rats out of 4 which were protected ([1]; dose 50 mg/kg, 2 h): 1
- MES screen 4 h: number of rats out of 4 which were protected ([1]; dose 50 mg/kg, 4 h): 1

SMILES: CCCc1ccc(Oc2ccc(C=NNC(N)=O)cc2)cc1 [Compound 5q]
- MES screen 0.5 h: number of rats out of 4 which were protected ([1]; dose 12.5 mg/kg, 0.5 h): 1
- MES screen 1 h: number of rats out of 4 which were protected ([1]; dose 12.5 mg/kg, 1 h): 2
- MES screen 2 h: number of rats out of 4 which were protected ([1]; dose 12.5 mg/kg, 2 h): 4
- MES screen 4 h: number of rats out of 4 which were protected ([1]; dose 12.5 mg/kg, 4 h): 2
- MES screen ED50 [1]: 2.63 mg/kg
- neurotoxicity screen TD50 [2]: >500 mg/kg

SMILES: NC(=O)NN=Cc1ccc(Oc2ccc(Cl)cc2)cc1 [Compound 4c]
- MES screen 0.25 h: number of rats out of 4 which were protected ([1]; dose 50 mg/kg, 0.25 h): 4
- MES screen 0.5 h: number of rats out of 4 which were protected ([1]; dose 50 mg/kg, 0.5 h): 4
- MES screen 1 h: number of rats out of 4 which were protected ([1]; dose 50 mg/kg, 1 h): 4
- MES screen 2 h: number of rats out of 4 which were protected ([1]; dose 50 mg/kg, 2 h): 4
- MES screen 4 h: number of rats out of 4 which were protected ([1]; dose 50 mg/kg, 4 h): 4

SMILES: NC(=O)NN=Cc1ccc(OS(=O)(=O)c2ccccc2)cc1 [Compound 15f]
- MES screen ED50 [3]: 25.27 mg/kg
- acPTZ screen ED50 [4]: >100 mg/kg
- neurotoxicity screen TD50 [5]: 113.00 mg/kg
- MES screen: number of rats out of 4 which were protected ([1]; dose 12.5 mg/kg, 0.25 h): 1
- MES screen: number of rats out of 4 which were protected ([1]; dose 12.5 mg/kg, 0.5 h): 2
- MES screen: number of rats out of 4 which were protected ([1]; dose 12.5 mg/kg, 1 h): 2
- MES screen: number of rats out of 4 which were protected ([1]; dose 12.5 mg/kg, 2 h): 4
- MES screen: number of rats out of 4 which were protected ([1]; dose 12.5 mg/kg, 4 h): 3

SMILES: NC(=O)NN=Cc1ccc(Oc2ccccc2)cc1 [Compound 4a]
- MES screen 0.5 h: number of rats out of 4 which were protected ([1]; dose 50 mg/kg, 0.5 h): 3
- MES screen 1 h: number of rats out of 4 which were protected ([1]; dose 50 mg/kg, 1 h): 4
- MES screen 2 h: number of rats out of 4 which were protected ([1]; dose 50 mg/kg, 2 h): 4
- MES screen 4 h: number of rats out of 4 which were protected ([1]; dose 50 mg/kg, 4 h): 4

SMILES: NC(=O)NN=Cc1ccc(Oc2ccc(-c3ccccc3)cc2)cc1 [Compound 4g]
- MES screen 2 h: number of rats out of 4 which were protected ([1]; dose 12.5 mg/kg, 2 h): 3
- MES screen 4 h: number of rats out of 4 which were protected ([1]; dose 12.5 mg/kg, 4 h): 1
